# Results: patent publication US20250213542A1, “DEVICES AND METHODS FOR DELIVERING SYNERGISTIC ACTIVE AGENTS TO TARGET SITES” (IRRIMAX Corporation, priority 2023, published 2025)
# Where a name gives a salt, the structure may show the parent alone. Read-outs that look alike come from different tables or passages of the source.
# Columns and labels:
# Format in all cases: cell-based
# E. coli (ATCC BAA 1427) [1] = test: Minimum inhibitory concentration determination, serial 2-fold dilution; settings: Escherichia coli
# Description: (§1) The minimal inhibitory concentration (MIC, the minimum inhibitory concentration required for 90% growth reduction) of octenidine was determined against S. aureus (ATCC 6538), P. aeruginosa (ATCC 15442), and E. coli (ATCC BAA 1427) by serial 2-fold dilution experiments. A solution of chlorhexidine (0.025% w/w) was used as a positive control and comparator.
# [2] = tested on: P. aeruginosa (ATCC 15442); test: as above; settings: Pseudomonas aeruginosa, ATCC15442, P. aeruginosa (ATCC 15442)
# Description: as §1
# S. aureus (ATCC 6538) [3] = test: as above; settings: Staphylococcus aureus, ATCC6538, S. aureus (ATCC 6538)
# Description: as §1
# E. coli (ATCC BAA 1427) [4] = test: Minimal bactericidal concentration determination, serial 2-fold dilution; settings: E. coli (ATCC BAA 1427); for Number of Colonies: average of triplicate
# Description: (§2) The minimal bactericidal concentration (MBC) of octenidine dihydrochloride was determined against S. aureus (ATCC 6538), P. aeruginosa (ATCC 15442), and E. coli (ATCC BAA 1427) by serial 2-fold dilution experiments. A solution of chlorhexidine (0.025% w/w) was used as a positive control and comparator.
# [5] = tested on: P. aeruginosa (ATCC 15442); test: as above; settings: for Number of Colonies: average of triplicate
# Description: as §2
# S. aureus (ATCC 6538) [6] = test: as above; settings: for Number of Colonies: average of triplicate
# Description: as §2
# E. coli = test: Chequerboard assay, FIC and synergy analysis; settings: Escherichia coli
# Description: (§3) Chlorhexidine gluconate (CHG) and octenidine dihydrochloride (OCT) were analyzed by chequerboard assay with each test organism to determine potential additive, synergistic, and antagonistic activity. The test organisms S. aureus, P. aeruginosa, and E. coli were tested at ranges of chlorhexidine gluconate (0.122-15.625 μg/ml, 1.25-160 μg/ml, and 0.125-16 μg/ml, respectively) and octenidine dihydrochloride (0.029-3.75 μg/mL, 0.029-3.75 μg/mL, and 0.029-3.75 μg/mL, respectively). FIC was calculated by the following Equation 2: […]
# P. aeruginosa = test: Chequerboard assay, FIC and synergy analysis; settings: Pseudomonas aeruginosa, P. aeruginosa, chequerboard
# Description: as §3
# S. aureus = test: Chequerboard assay, FIC and synergy analysis; settings: Staphylococcus aureus
# Description: as §3
# [7] = 0.46875 μg/mL, read-out: Average Growth Inhibition (%)
# [8] = 0.9375 μg/mL, read-out: Average Growth Inhibition (%)
# [9] = 1.875 μg/mL, read-out: Average Growth Inhibition (%)
# [10] = 3.75 μg/mL, read-out: Average Growth Inhibition (%)
# [11] = 7.5 μg/mL, read-out: Average Growth Inhibition (%)
# [12] = 15 μg/mL, read-out: Average Growth Inhibition (%)
# [13] = 30 μg/mL, read-out: Average Growth Inhibition (%)
# [14] = 60 μg/mL, read-out: Average Growth Inhibition (%)
# [15] = read-out: MIC (inhibited greater than 90% growth)
# [16] = in presence of CHG, read-out: MIC of OCT in Presence of CHG
smiles,measurement,setting,value
"CCCCCCCCN=c1ccn(CCCCCCCCCCn2ccc(=NCCCCCCCC)cc2)cc1 [Octenidine dihydrochloride, 1-Octanamine, N,N′-(1,10-decanediyldi-1(4H)-pyridinyl-4-ylidene)bis-]",inhibition at 0.46875 µg/mL,"E. coli (ATCC BAA 1427) [1]; BAA1427, 0.46875 μg/mL, read-out: Average Growth Inhibition (%)",6%
same,inhibition at 0.9375 µg/mL,"E. coli (ATCC BAA 1427) [1]; BAA1427, 0.9375 μg/mL, read-out: Average Growth Inhibition (%)",12%
same,inhibition at 1.875 µg/mL,"E. coli (ATCC BAA 1427) [1]; BAA1427, 1.875 μg/mL, read-out: Average Growth Inhibition (%)",100%
same,inhibition at 3.75 µg/mL,"E. coli (ATCC BAA 1427) [1]; BAA1427, 3.75 μg/mL, read-out: Average Growth Inhibition (%)",100%
same,inhibition at 7.5 µg/mL,"E. coli (ATCC BAA 1427) [1]; BAA1427, 7.5 μg/mL, read-out: Average Growth Inhibition (%)",100%
same,inhibition at 15 µg/mL,"E. coli (ATCC BAA 1427) [1]; BAA1427, 15 μg/mL, read-out: Average Growth Inhibition (%)",99%
same,inhibition at 30 µg/mL,"E. coli (ATCC BAA 1427) [1]; BAA1427, 30 μg/mL, read-out: Average Growth Inhibition (%)",97%
same,inhibition at 60 µg/mL,"E. coli (ATCC BAA 1427) [1]; BAA1427, 60 μg/mL, read-out: Average Growth Inhibition (%)",91%
same,MIC,"E. coli (ATCC BAA 1427) [1]; BAA1427, read-out: MIC (inhibited greater than 90% growth)",1.88 µg/mL
same,inhibition at 0.46875 µg/mL,[2]; [7],2%
same,inhibition at 0.9375 µg/mL,[2]; [8],4%
same,inhibition at 1.875 µg/mL,[2]; [9],100%
same,inhibition at 3.75 µg/mL,[2]; [10],100%
same,inhibition at 7.5 µg/mL,[2]; [11],100%
same,inhibition at 15 µg/mL,[2]; [12],99%
same,inhibition at 30 µg/mL,[2]; [13],97%
same,inhibition at 60 µg/mL,[2]; [14],91%
same,MIC,[2]; [15],1.88 µg/mL
same,inhibition at 0.46875 µg/mL,S. aureus (ATCC 6538) [3]; [7],50%
same,inhibition at 0.9375 µg/mL,S. aureus (ATCC 6538) [3]; [8],101%
same,inhibition at 1.875 µg/mL,S. aureus (ATCC 6538) [3]; [9],101%
same,inhibition at 3.75 µg/mL,S. aureus (ATCC 6538) [3]; [10],101%
same,inhibition at 7.5 µg/mL,S. aureus (ATCC 6538) [3]; [11],98%
same,inhibition at 15 µg/mL,S. aureus (ATCC 6538) [3]; [12],97%
same,inhibition at 30 µg/mL,S. aureus (ATCC 6538) [3]; [13],92%
same,inhibition at 60 µg/mL,S. aureus (ATCC 6538) [3]; [14],73%
same,MIC,S. aureus (ATCC 6538) [3]; [15],0.938 µg/mL
same,CFU/mL,E. coli (ATCC BAA 1427) [4]; 0.46875 μg/mL,"Lawn (‘Lawn’indicates too many colonies to accurately count (e.g., greater than 250 colonies on an agar plate))"
same,Number of Colonies,E. coli (ATCC BAA 1427) [4]; 0.46875 μg/mL,"Lawn (‘Lawn’indicates too many colonies to accurately count (e.g., greater than 250 colonies on an agar plate))"
same,CFU/mL,E. coli (ATCC BAA 1427) [4]; 0.9375 μg/mL,"Lawn (‘Lawn’indicates too many colonies to accurately count (e.g., greater than 250 colonies on an agar plate))"
same,Number of Colonies,E. coli (ATCC BAA 1427) [4]; 0.9375 μg/mL,"Lawn (‘Lawn’indicates too many colonies to accurately count (e.g., greater than 250 colonies on an agar plate))"
same,CFU/mL,E. coli (ATCC BAA 1427) [4]; 1.875 μg/mL,0 CFU/mL
same,Number of Colonies,E. coli (ATCC BAA 1427) [4]; 1.875 μg/mL,0
same,CFU/mL,E. coli (ATCC BAA 1427) [4]; 3.75 μg/mL,0 CFU/mL
same,Number of Colonies,E. coli (ATCC BAA 1427) [4]; 3.75 μg/mL,0
same,CFU/mL,E. coli (ATCC BAA 1427) [4]; 7.5 μg/mL,0 CFU/mL
same,Number of Colonies,E. coli (ATCC BAA 1427) [4]; 7.5 μg/mL,0
same,CFU/mL,E. coli (ATCC BAA 1427) [4]; 15 μg/mL,0 CFU/mL
same,Number of Colonies,E. coli (ATCC BAA 1427) [4]; 15 μg/mL,0
same,CFU/mL,E. coli (ATCC BAA 1427) [4]; 30 μg/mL,0 CFU/mL
same,Number of Colonies,E. coli (ATCC BAA 1427) [4]; 30 μg/mL,0
same,CFU/mL,E. coli (ATCC BAA 1427) [4]; 60 μg/mL,0 CFU/mL
same,Number of Colonies,E. coli (ATCC BAA 1427) [4]; 60 μg/mL,0
same,MBC,"E. coli (ATCC BAA 1427) [4]; Escherichia coli, BAA1427, read-out: MBC (concentration having less than 500 CFU/mL)",1.88 µg/mL
same,CFU/mL,[5]; 0.46875 μg/mL,"Lawn (‘Lawn’indicates too many colonies to accurately count (e.g., greater than 250 colonies on an agar plate))"
same,Number of Colonies,[5]; 0.46875 μg/mL,"Lawn (‘Lawn’indicates too many colonies to accurately count (e.g., greater than 250 colonies on an agar plate))"
same,CFU/mL,[5]; 0.9375 μg/mL,"Lawn (‘Lawn’indicates too many colonies to accurately count (e.g., greater than 250 colonies on an agar plate))"
same,Number of Colonies,[5]; 0.9375 μg/mL,"Lawn (‘Lawn’indicates too many colonies to accurately count (e.g., greater than 250 colonies on an agar plate))"
same,CFU/mL,[5]; 1.875 μg/mL,966.67 CFU/mL
same,Number of Colonies,[5]; 1.875 μg/mL,9.667
same,CFU/mL,[5]; 3.75 μg/mL,0 CFU/mL
same,Number of Colonies,[5]; 3.75 μg/mL,0
same,CFU/mL,[5]; 7.5 μg/mL,0 CFU/mL
same,Number of Colonies,[5]; 7.5 μg/mL,0
same,CFU/mL,[5]; 15 μg/mL,0 CFU/mL
same,Number of Colonies,[5]; 15 μg/mL,0
same,CFU/mL,[5]; 30 μg/mL,0 CFU/mL
same,Number of Colonies,[5]; 30 μg/mL,0
same,CFU/mL,[5]; 60 μg/mL,0 CFU/mL
same,Number of Colonies,[5]; 60 μg/mL,0
same,MBC,"[5]; Pseudomonas aeruginosa, ATCC15442, read-out: MBC (concentration having less than 500 CFU/mL)",3.75 µg/mL
same,CFU/mL,S. aureus (ATCC 6538) [6]; 0.46875 μg/mL,"Lawn (‘Lawn’indicates too many colonies to accurately count (e.g., greater than 250 colonies on an agar plate))"
same,Number of Colonies,S. aureus (ATCC 6538) [6]; 0.46875 μg/mL,"Lawn (‘Lawn’indicates too many colonies to accurately count (e.g., greater than 250 colonies on an agar plate))"
same,CFU/mL,S. aureus (ATCC 6538) [6]; 0.9375 μg/mL,0 CFU/mL
same,Number of Colonies,S. aureus (ATCC 6538) [6]; 0.9375 μg/mL,0
same,CFU/mL,S. aureus (ATCC 6538) [6]; 1.875 μg/mL,0 CFU/mL
same,Number of Colonies,S. aureus (ATCC 6538) [6]; 1.875 μg/mL,0
same,CFU/mL,S. aureus (ATCC 6538) [6]; 3.75 μg/mL,566.67 CFU/mL
same,Number of Colonies,S. aureus (ATCC 6538) [6]; 3.75 μg/mL,5.6667
same,CFU/mL,S. aureus (ATCC 6538) [6]; 7.5 μg/mL,0 CFU/mL
same,Number of Colonies,S. aureus (ATCC 6538) [6]; 7.5 μg/mL,0
same,CFU/mL,S. aureus (ATCC 6538) [6]; 15 μg/mL,0 CFU/mL
same,Number of Colonies,S. aureus (ATCC 6538) [6]; 15 μg/mL,0
same,CFU/mL,S. aureus (ATCC 6538) [6]; 30 μg/mL,0 CFU/mL
same,Number of Colonies,S. aureus (ATCC 6538) [6]; 30 μg/mL,0
same,CFU/mL,S. aureus (ATCC 6538) [6]; 60 μg/mL,0 CFU/mL
same,Number of Colonies,S. aureus (ATCC 6538) [6]; 60 μg/mL,0
same,MBC,"S. aureus (ATCC 6538) [6]; Staphylococcus aureus, ATCC6538, read-out: MBC (concentration having less than 500 CFU/mL)",0.938 µg/mL
same,MIC,E. coli; [16],0.029 µg/mL
same,MIC,E. coli; read-out: MIC of OCT Alone,1.88 µg/mL
same,MIC,P. aeruginosa; [16],0.938 µg/mL
same,MIC,P. aeruginosa; read-out: MIC of OCT Alone,1.88 µg/mL
same,MIC,S. aureus; [16],0.234 µg/mL
same,MIC,S. aureus; read-out: MIC of OCT Alone,0.938 µg/mL
